Data set [1] is described as follows: Measurement of viscosity at 40° C. (type E viscometer). Type of data set: physicochemical. As to the method: Viscosity of the drug is measured using a type E viscometer while keeping the drug at a predetermined temperature. According to the invention, when the viscosity of a drug at a predetermined temperature is from 0.05 to 100,000 mPa·s, the drug is liquid at the predetermined temperature. In addition, the “logPow” is an index which expresses hydrophilic property or hydrophobicity of the drug, and is a value measured on individual drugs in accordance with the method described in “OECD GUIDELINE FOR THE TESTING OF CHEMICALS 107, Adopted by the Council on 27 Jul. 1995, Partition Coefficient (n-octanol/water), Shake Flask Method)”, and the base of logarithm of logPow is 10.
In addition, the viscosity of a drug at 40° C. is measured using a type E viscometer while heating the drug at 40° C.
5. Measurement of Viscosity at 40° C.
Viscosity of drugs at 40° C. was measured using a type E viscometer (type E viscometer mfd. By Tokyo Keiki, VISCONIC Type ED).

Data set [2] is described as follows: Measurement of logPow (OECD 107, n-octanol/water, shake flask method). Type of data set: physicochemical. As for the experimental part: In this case, the “drug which is liquid at room temperature or around room temperature” means a drug which is liquid at a temperature where the adhesive pharmaceutical preparation after its production is generally preserved, namely any temperature within a temperature range of from 1 to 40° C. Within such a temperature range, the drug has such a degree of fluidity that it can cause bleeding. Viscosity of the drug is measured using a type E viscometer while keeping the drug at a predetermined temperature. According to the invention, when the viscosity of a drug at a predetermined temperature is from 0.05 to 100,000 mPa·s, the drug is liquid at the predetermined temperature. In addition, the “logPow” is an index which expresses hydrophilic property or hydrophobicity of the drug, and is a value measured on individual drugs in accordance with the method described in “OECD GUIDELINE FOR THE TESTING OF CHEMICALS 107, Adopted by the Council on 27 Jul. 1995, Partition Coefficient (n-octanol/water), Shake Flask Method)”, and the base of logarithm of logPow is 10.
The “logPow” is obtained by a calculation after partitioning a drug into water layer and n-octanol layer and determining the drug concentration of each layer by an appropriate method, in accordance with the method described in the above-mentioned guideline. The quantitative determination of drugs is not particularly limited so long as it is a method in which its determinability was verified, for example, by verifying linearity of its calibration curve, but in general, an absorptiometry, a gas chromatography or a high performance liquid chromatography is used. […] In addition, when the drug is a dissociating substance, the logPow is measured while suppressing its dissociation in accordance with the guideline. That is, the logPow is measured using a buffer of appropriate pH as the water layer under a condition of a free acid or free base. When the drug is an acidic drug, a buffer having a pH value which is lower by a factor of 1 than the pKa value of the drug is used. When the drug is a basic drug, a buffer having a pH value which is higher by a factor of 1 than the pKa value of the drug is used.
In this connection, although the measurement range of logPow is generally set from −2 to 4 according to this guideline, the measurement range of logPow can be set to −2 to 5 by increasing the determination sensitivity by making use of high sensitivity analytical methods such as a high performance liquid chromatography.
LogPow was measured in accordance with the “OECD GUIDELINE FOR THE TESTING OF CHEMICALS 107, Adopted by the Council on 27th Jul. 1995, Partition Coefficient (n-Octanol/water), Shake Flask Method)”. Water layers, determination methods and results of the LogPow measurement at the time of the measurement of LogPow are shown in Table 3.

Where [3] appears, read: water layer pH 10 buffer, HPLC method.

Where two headings read alike, the source gives them in different places.

By logP is commonly meant the decadic logarithm of the partition coefficient of the neutral form, usually between octanol and water. A low value points to a more hydrophilic compound. As a reminder, the logD is the decadic logarithm of the distribution of all forms, ionised or not, between an organic phase and buffer at a given pH.

For `CC=CC(=O)N(CC)c1ccccc1C` (mixture of isomers) [Crotamiton, crotamiton], the Viscosity in data set [1] amounted to 16 mPa·s. For the same compound, the logP in data set [2] (n-octanol/water, water layer distilled water, HPLC method) came out at 3.1. The LogPow entry in data set [2] (water layer distilled water, HPLC method) is “Crotamiton (3.1)”; in data set [2] (water layer distilled water, HPLC method, listed as crotamiton), 3.1.

In the case of `CCOCCn1c(N2CCCN(C)CC2)nc2ccccc21` [Emedastine free base, emedastine free base], the Viscosity in data set [1] worked out at 280 mPa·s. This compound gave a logD in data set [2] (n-octanol/water, water layer pH 10 buffer, HPLC method) of 2.4. Besides, the LogPow entry in data set [2] (setting [3]) is listed as “base (2.4)”; in data set [2] (water layer pH 10 buffer, HPLC method, listed as emedastine free base), 2.4.

As to `COc1ccc(CCN(C)CCCC(C#N)(c2cc(OC)c(OC)c(OC)c2)C(C)C)cc1OC` (stereo not shown) [Gallopamil free base, gallopamil free base], the Viscosity in data set [1] is 4500 mPa·s; in data set [1] (listed as gallopamil), 4,500 mPa·s. Besides, in data set [2] (setting [3]), the LogPow worked out at 4.8.

As to `OCC(O)CO` [Glycerol], the LogPow in data set [2] (water layer distilled water, titration method) is listed as −1.1.

`CN(C/C=C/C#CC(C)(C)C)Cc1cccc2ccccc12` [Terbinafine free base] came in with a Viscosity in data set [1] of 280 mPa·s. In addition, the logD in data set [2] (n-octanol/water, water layer pH 9.2 buffer, HPLC method) is greater than 5. Also, the LogPow entry in data set [2] (water layer pH 9.2 buffer, HPLC method) is reported as “base (>5.0)”; in data set [2] (water layer pH 9.2 buffer, HPLC method, listed as terbinafine), greater than 5.0.

The record behind these values is patent US20090169603A1, “Adhesive Pharmaceutical Preparation” (NITTO DENKO CORPORATION, priority 2005, published 2009).
